Laboratory results from patent US9233095B2, “Small molecule RNase inhibitors and methods of use” (University of Rochester, priority 2011, dated 2016).
Converted amounts (≈) assume the structure as drawn. “And” between values parts separate entries of the source, which are not always exact repeats. Equal entries are not always repeated. Where two headings read alike, the source gives them in different places.

Experiments:
S. aureus (MSSA) = experiment: CLSI broth microdilution MIC; format: cell-based, Staphylococcus aureus; settings: Staphylococcus aureus, MSSA; strain UAMS-1
Description: (§1) In some examples, compounds can be further assayed using the Mueller Hinton (MH) broth antibacterial assay as specified by the Clinical and Laboratory Standards Institute MIC broth microdilution protocol (see Methods for Dilution Antimicrobial Susceptibility Tests for Bacteria That Grow Aerobically; Approved Standard, In The Clinical and Laboratory Standards Institute (CLSI, formerly NCCLS), 7th ed., January 2006, 26 (2), M7-A7; see also Performance Standards for Antimicrobial Susceptibility Testing; Eighteenth Informational Supplement, In The Clinical and Laboratory Standards Institute (CLSI, formerly NCCLS), January 2008, 28 (1), M100-S18).
(§2) With the exception of RN4220-derivatives, in vitro activities of RNPA1000 against bacteria were determined by the broth microdilution method according to the Clinical and Laboratory Standards Institute (CLSI) guidelines using cation adjusted Mueller-Hinton broth or MH broth supplemented with 5% lysed horse blood (for testing Streptotococcus spp.). Microtiter plates containing serial dilutions of RNPA1000 (0, 4, 8, 16, 32, 64, and 128 μg/ml) were inoculated with 10^5 colony forming units (CFU)/ml and incubated for 18 hr at 37° C. […] The MIC value for each S. aureus strain was determined to be the median score of replicate measurements (n=5). Wells containing concentrations of RNPA1000≧MIC were plated for minimal bactericidal measurement. Where possible, experiments with VRSA strains were performed in a laminar flow hood to minimize potential for equipment contamination. For RN4220 cells containing plasmid vector (pCN51), RnpA overproducing plasmid (pRNPA-S) or RnpA underproducing plasmid (pRNPA-A.S.) in vitro antimicrobial activity of RNPA1000 was performed by the microdilution method as described above, except that cells were grown in Tryptic Soy Broth medium supplemented with 2.5 μM CdCl2 and 0, 1, 2, 4, 8, 16, 32, 64, or 128 μg/ml RNPA1000. Time-kill assays were also performed to monitor the antimicrobial properties of RNPA1000 for S. aureus strain UAMS-1 in the absence and presence of 0.25, 0.5, 2, and 4 times the strain's MIC for oxacillin (1 μg/ml), rifampicin (0.5 μg/ml), vancomycin (2 μg/ml), or daptomycin (1 μg/ml). The indicated amount of RNPA1000 and/or commercial antibiotic were added to mid-exponential phase (2×10^8 cfu/ml) S. aureus strain UAMS-1 cells and incubated at 37° C. Aliquots were removed at 0, 2, 4, 8, and 24 hr post-antimicrobial challenge, serial diluted, and plated to enumerate resulting cfu/ml. All time-kill assays were repeated at least 3 times.

E. faecalis = experiment: CLSI broth microdilution MIC; format: cell-based, Enterococcus faecalis
Description: as §1, §2

E. faecium (VRE) = experiment: CLSI broth microdilution MIC; format: cell-based, Enterococcus faecium; settings: for MIC: Enterococcus faecium
Description: as §1, §2

E. faecium = experiment: CLSI broth microdilution MIC; format: cell-based, Enterococcus faecium; settings: for MIC: Enterococcus faecium
Description: as §1, §2

[1] = tested on: biofilm-associated S. aureus strain UAMS-1; experiment: in vitro catheter biofilm assay; format: cell-based
Procedure: To determine this, in vitro biofilm assays were performed as described in Weiss et al., Antimicrob Agents Chemother, 53: 2475-2482 (2009). Briefly, 1 cm segments of 14-gauge fluorinated ethylene propylene Introcan Safety Catheters (B. Braun, Bethlehem, Pa.) were coated with human plasma and placed in individual wells of a 12-well microtiter plate containing 2 ml biofilm medium and S. aureus strain UAMS-1 at a final OD600 nm of 0.05. Following overnight incubation at 37° C. catheters were removed, rinsed in phosphate buffered saline (PBS), and transferred to fresh biofilm medium containing 0, 5, 10, or 20 times the S. aureus MIC for RNPA1000. Catheters exposed to each dose (n=3) were recovered daily over a period of 3 days, with the medium being replaced each day. After each recovery time point catheters were rinsed in PBS and adherent bacteria were enumerated by sonication and plating. Analysis of variance (ANOVA) of logarithmically-transformed bacterial count data was used to evaluate the effect of RNPA1000 exposure.

S. aureus strain Smith [2] = experiment: acute lethal model of infection; format: in vivo, CD-1 mice; settings: for % Survival: 5 days, one value per experiment
Procedure: Because RNPA1000 was not toxic during short- and only mildly toxic during extended-HepG2 exposure, it could serve as an appropriate tool to assess whether RnpA-inhibitory molecules are efficacious in a systemic mouse infection model. […] RNPA1000 was solubilized in 1:1 mixture of DMSO and PEG400; Vancomycin was prepared in water. Animals (5/dose group) were administered 16, 64, and 256 mg/kg or 0.25, 1, 4, and 16 mg/kg of RNPA1000 or Vancomycin, respectively, at 30 min post infection by subcutaneous injection (0.2 ml). The percent surviving animals receiving no treatment, a single dose of Vancomycin, or RnpA-inhibitor was recorded daily over the course of the study (5 days).
Percent survival refers to a consensus of surviving animals following 5 days post-intraperitoneal S. aureus injection and RNPA1000 administration. The number in parentheses indicates the number of times the experiment was repeated. Each member of non-treated control mice expired within 24 hr bacterial inoculation (0 mg/kg). Vancomycin served as a positive control.

S. aureus strain Smith [3] = experiment: acute lethal model of infection; format: in vivo, CD-1 mice; settings: RNPA1000 128 mg/kg s.c., over the course of study

## Cc1cc(/C=C(/C#N)C(=O)Nc2cccc(Br)c2)c(C)n1-c1ccc(C(=O)O)cc1 [RNPA1000]
S. aureus (MSSA)
  MIC: 26 µg/mL (≈ 56 µM)
E. faecalis
  antimicrobial activity in words: mild activity
E. faecalis; E. faecalis Isolate 1
  MIC: 64 µg/mL (≈ 138 µM)
E. faecalis; E. faecalis Isolate 3
  MIC: 64 µg/mL (≈ 138 µM)
E. faecalis; E. faecalis Isolate 4
  MIC: 64 µg/mL (≈ 138 µM)
E. faecalis; E. faecalis Isolate 5
  MIC: 64 µg/mL (≈ 138 µM)
E. faecalis; Enterococcus faecalis, E. faecalis Isolate 2, read-out: MIC
  MIC: 64 µg/mL (≈ 138 µM)
E. faecium (VRE)
  antimicrobial activity in words: mild activity
E. faecium (VRE); E. faecium (VRE) Isolate 1
  MIC: 64 µg/mL (≈ 138 µM)
E. faecium (VRE); E. faecium (VRE) Isolate 2
  MIC: 64 µg/mL (≈ 138 µM)
E. faecium (VRE); E. faecium (VRE) Isolate 3
  MIC: 32 µg/mL (≈ 68.9 µM)
E. faecium (VRE); E. faecium (VRE) Isolate 4
  MIC: 64 µg/mL (≈ 138 µM)
E. faecium (VRE); E. faecium (VRE) Isolate 5
  MIC: 32 µg/mL (≈ 68.9 µM)
E. faecium
  antimicrobial activity in words: mild activity
E. faecium; E. faecium Isolate 1, read-out: MIC
  MIC: 64 µg/mL (≈ 138 µM)
E. faecium; E. faecium Isolate 2, read-out: MIC
  MIC: 64 µg/mL (≈ 138 µM)
E. faecium; E. faecium Isolate 3, read-out: MIC
  MIC: 64 µg/mL (≈ 138 µM)
E. faecium; E. faecium Isolate 4, read-out: MIC
  MIC: 64 µg/mL (≈ 138 µM)
E. faecium; E. faecium Isolate 5 + reserpine (efflux pump inhibitor)
  MIC: 32 µg/mL
E. faecium; E. faecium Isolate 5, read-out: MIC
  MIC: 64 µg/mL (≈ 138 µM)
[1]; 5, 10 or 20× MIC, up to 3 days
  bacterial clearance: never achieved
[1]; 5× MIC for 24 hr
  decrease in bacterial burden: 3 log
[1]; up to 20× MIC, up to 3 days
  maximal reduction in biofilm-associated bacteria: 5 log
S. aureus strain Smith [2]; RNPA1000 16 mg/kg s.c. 30 min post infection
  % Survival: 20; 20(2) %
S. aureus strain Smith [2]; RNPA1000 64 mg/kg s.c. 30 min post infection, 64 mg/kg
  % Survival: 40%
S. aureus strain Smith [2]; RNPA1000 256 mg/kg s.c. 30 min post infection, 256 mg/kg
  % Survival: 60% and 40%
S. aureus strain Smith [2]; Staphylococcus aureus, in Mus musculus, sc, single dose, read-out: median effective dose (ED50)
  ED50: 64 to 256 mg/kg
S. aureus strain Smith [3]
  survival: 30%
